# Measurements published in patent publication US11078496B2, “System for F-box hormone receptor regulated protein expression in mammalian cells” (ICAHN SCHOOL OF MEDICINE AT MOUNT SINAI, priority 2016, dated 2021).
# Tested on: dnMAML1-NLS-GFP-OsJAZ^33 (dnM1-GFP-J)
# Test: Coronatine-dependent degradation of dnM1-GFP-J in hESCs (fluorescence microscopy)
# Assay type: cell-based, human
# Conditions: hESCs harboring pRAIDRS NICD-A and pJAZ dnM1-GFP-J, 50 μM coronatine, 1 day
# Procedure: FIGS. 14A-14C illustrate a dual switch for dissection of NOTCH1 function in hESCs. H9 hESCs were infected with pRAIDRS harboring an shRNA targeting the full-length NOTCH1 receptor and an NICD-AID^47 CDS (“NICD-A”). As a control, cells were infected with pRAIDRS NLS-GFP-AID^47 (“GFP-A”). Cells were maintained with 250 μM auxin to prevent NICD-A accumulation. Following selection and isolation of colonies with ESC morphology, cells were infected with pJAZ dnMAML1-NLS-GFP-OsJAZ^33 (“dnM1-GFP-J”) or pJAZ NLS-GFP-OsJAZ^33 (“GFP-J”) as control and post-selection colonies were expanded. FIG. 14A is a western blot analysis of pRAIDRS GFP-A and NICD-A hESCs maintained in the presence of 250 μM auxin (“IAA”), washed and incubated for 4 h in the presence (+) or absence (−) of auxin. […] Dashed lines mark colony borders. […] Dashed lines indicate instances where coronatine-mediated dnM1-GFP-J degradation restored NICD-A-dependent activity by at least twofold. […] See also FIGS. 13A-13E and 15.
# In mice, NOTCH was also implicated in trophectoderm formation (Rayon et al., “Notch and Hippo Converge on Cdx2 to Specify the Trophectoderm Lineage in the Mouse Blastocyst,” Dev. Cell 30:410-422 (2014), which is hereby incorporated by reference in its entirety). […]
smiles,measurement,value
"CC[C@H]1C=C(C(=O)N[C@@]2(C(=O)O)C[C@@H]2CC)[C@H]2CCC(=O)[C@H]2C1 [coronatine, Coronatine]",degradation of dnM1-GFP-J,effectively induced degradation
